Data from patent US10479814B2, “Adenosine receptor activation reagent and the uses of thereof” (Zhejiang Subtropical Crops Research Institute, priority 2014, dated 2019).

Biological target: T1, rat cerebral cortex adenosine A1 receptor (Rattus norvegicus, UniProt P25099)
T1 construct: DPCPX; from tissue; host or cells: Wistar rat cerebral cortex
T1 sequence (P25099 1-326): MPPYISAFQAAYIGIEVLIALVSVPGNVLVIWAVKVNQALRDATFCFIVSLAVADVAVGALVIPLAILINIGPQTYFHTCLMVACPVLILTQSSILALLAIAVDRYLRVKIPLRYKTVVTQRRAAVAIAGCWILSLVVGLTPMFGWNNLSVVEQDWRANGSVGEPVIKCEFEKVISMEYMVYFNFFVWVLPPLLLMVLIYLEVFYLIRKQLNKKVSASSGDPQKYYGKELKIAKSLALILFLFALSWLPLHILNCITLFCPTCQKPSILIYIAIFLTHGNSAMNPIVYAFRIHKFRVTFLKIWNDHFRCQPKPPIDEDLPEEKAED
Assay: adenosine A1 receptor ligand binding test ([3H]DPCPX)

OCCNc1ncnc2c1ncn2[C@@H]1O[C@H](CO)[C@@H](O)[C@H]1O [HEA, N(6)-(2-hydroxyethyl)-adenosine]
affinity to adenosine A1 receptor relative to adenosine A2A receptor (A1 versus A2A): 100 fold
selectivity to A1 receptor (in words) (A1 versus A2A binding): high selectivity to A1 receptor
Ki (rat cerebral cortex homogenate, 0.2 nM [3H]DPCPX, 25° C. 30 min, read-out: Ki value of competitive binding with the adenosine A1 receptor): 89.5 nM
